From patent US20160031909A1, “PORPHYRAZINE OPTICAL AND DUAL OPTICAL/ MR CONTRAST AND THERAPEUTIC AGENTS” (HOFFMAN/BARRETT, LLC, priority 2013, published 2016) come the findings set out here.

Data set [1] has as its system MDA-MB-231 orthotopic breast tumor. Put plainly: In vivo tumor MRI in orthotopic breast tumor model. On the set-up: species or system athymic nude mice. As to the method:
(§1) Cu-Pz-Gd(III) was examined as a contrast agent in vivo in an orthotopic breast tumor model in athymic nude mice. MDA-MB-231 breast tumor cells expressing mCherry fluorescent protein were implanted in the mammary fat pad of mice and tumors were allowed to grow to about 5 mm in diameter at which time mice were treated with 450 nmol (50 mg/kg) Cu-Pz-Gd(III) together with saline treated control mice (FIG. 3A).
In a separate experiment focusing only on short time points (0-225 min), groups of mice (n=3) were treated with Cu-Pz-Gd(III) (450 nmol, 50 mg/kg), DOTA-Gd(I I I) (900 nmol, 25 mg/kg), and saline as a negative control (FIG. 4). Mice were imaged continuously after tail vein injections. […] Regions of interest (ROIs) were defined outside the periphery of tumors, at the inner rim, and at the center.
MDA-MB-231 cells (1×10^6) expressing mCherry fluorescent protein were inoculated subcutaneously (1:1 v/v matrigel:PBS) on the right mammary fat pad. Cells were maintained in DMEM media supplemented with 10% FBS prior to inoculation. The athymic nude mice, Crl:NU(NCr)-Foxnl^nm, were purchased from Charles River, Portage at 5-6 weeks old and 16-18 gram were allowed to acclimate for 5 days. One week post inoculation, each animal was screened for mCherry fluorescence wavelength using the IVIS small animal fluorescence imaging system to verify presence of the tumor.
Mice were anesthetized in an induction chamber with 3% inhaled isoflurane in oxygen, then transferred to an imaging bed with circulating warm water heating system, MRI compatible respiratory monitoring (SA Instruments, Stony Brook, N.Y.) and 1-2% isoflurane delivered via nosecone to maintain a surgical plane of anesthesia with respiratory rate at 90-100 breaths/min Mice were imaged prone with the tumor centered in a 40 mm diameter quadrature volume coil (Bruker Biospec, Billerica, Mass.). An AutoPac automated positioning system was used to reproducibly center the animals in the MRI system.
Mice were positioned in the MRI scanner as described above and localizer images were acquired. T1 maps were acquired using a FAIR-RARE non-selective inversion recovery sequence with static TR (18,000 ms) and TE (6.1 ms), and variable TI (30.5, 100, 200, 300, 500, 600, 700, 800, 900, 1000, 1100, 1200, 1300, 1400, 1600, 2000, 2500, 3000, 3500, 4000, 4500, 5000, and 6000 ms). Imaging parameters were as follows: field of view (FOV)=40×20 mm^2, matrix size(MTX)=512×133 pixels, number of slices=1, slice thickness=1.0 mm, and 1 average (total scan time=5 m 26 s).
(§2) Images were acquired at baseline, and 4, 24, and 48 hours after injection of 150 μL of imaging agent via the tail vein. One control animal was injected with saline; the remaining 9 animals were injected with 450 nmol Cu-Pz-Gd(III). Three animals were sacrificed after 4 hour, 24 hour, and 48 hour timepoints, respectively; the organs were collected for ICP-MS (described below) to measure biodistribution.
Mice were positioned in the MRI scanner as described above and localizer images were acquired. To improve signal to noise ratio, reduce respiratory artifacts, and increase tumor coverage, for this study we used a multi slice T1 map acquired using a variable repetition time saturation recovery sequence (RARE-VTR) with static TE (8.2 ms) and variable TR (175, 300, 600, 800, 1200, 2000, 4000 ms). Imaging parameters were as follows: FOV=10×7.5 mm, MTX=80×60, number of axial slices=5, slice thickness=1.0 mm, and 1 average (total scan time=6 min 48 sec). […]

Data set [2] can be described thus: Ex vivo biodistribution by ICP-MS. It is filed as in vivo, athymic nude mice. As to the method:
as §1, §2
Mice were sacrificed by CO2 inhalation followed by cervical dislocation. Blood, urine (where possible), tumor, liver, kidney, spleen, heart, lungs, and samples of skin and skeletal muscle were collected for elemental analysis by ICP-MS as described below. In one additional mouse that was not treated with an imaging agent, the tumor was collected and fixed in 10% formalin for histological analysis. […]

Entries after “also recorded” stand apart in the source; their conditions may differ.

With “Cu[Pz(C19H28N8O7Gd)2]. Pz=18,21-bis(2-(1H-1,2,3-triazole-4-yl) ethoxy)-tris-[1,4-dioxino[g,l,q](2R,3R)-2,3-dimethoxy-2,3-dimethyll 25H,27H-benzo[b]porphyrazine; C19H28N8O7Gd=N-methyl-2-aminoacetamide-4,7,10-tris(carboxymethyl)-1,4,7,10-tetraazacyclododecylgadolinium(III)) [Cu-Pz-Gd(III)]”, the “tumor T1 over time” value in data set [1] (0-225 min after tail vein injection, Cu-Pz-Gd(III) 450 nmol (50 mg/kg), DOTA-Gd(III) 900 nmol (25 mg/kg)) is given as “persistent; also recorded: becomes progressively shorter; also recorded: steady accumulation of Cu-Pz-Gd(III) in tumor tissue with greater accumulation in the necrotic core; also recorded: decrease in T1 is much more persistent”. Besides, the “MR contrast enhancement of tumors” value in data set [1] (450 nmol (50 mg/kg), 4 hour timepoint) is “significant contrast enhancement”. Further, the “time at which T1 of tumor center is roughly equivalent to the rim” value in data set [1] (450 nmol, 50 mg/kg) is recorded as 135 min. The “average T1 of tumor regions” value in data set [1] (50 mg/kg, relative to saline treated controls) was “decreased relative to saline-treated controls; also recorded: decreased relative to saline treated controls”. Moreover, the route of clearance result in data set [2] (biodistribution data by ICP-MS) was “rapidly cleared, primarily through the kidneys; also recorded: primarily through the kidneys and liver; also recorded: cleared through the kidneys and liver”. Moreover, the tumor accumulation entry in data set [2] (ex vivo biodistribution study) was “accumulates in tumors”.
